What was measured:
[1] = molecular target: T1, N-type Ca2+ channels in superior cervical ganglion (SCG) neurons (Rattus norvegicus, UniProt Q02294); experiment: Whole-cell voltage clamp, N-type Ca2+ current in SCG neurons; type: cell-based; conditions: for IC50: read-out: Inhibition of N-type Ca2+ Current IC50
T1 construct: from tissue
Description: (§1) Electrophysiological techniques were used to measure the effects of experimental compounds on voltage-gated Ca^2+, Na^+ and K^+ channels. […] Sodium and potassium channel currents were measured from acutely dissociated SCG neurons.
(§2) Dissociation of the neurons from the ganglia was accomplished using a 30 to 45 minute treatment in 0.25% trypsin, similar to methods outlined in Higgins, et al. [see Higgins D., et al. “Tissue culture of mammalian autonomic neurons.” In Banker G. and Goslin K. (Eds), Culturing Nerve Cells, Cambridge, Mass., MIT Press (1991)].
(§3) Ca^2+, Na^+ and K^+ channel currents in SCG neurons were measured using conventional single electrode whole-cell voltage-clamp techniques, outlined in Hamill, et al., (see Hamill O.P., et al. “Improved patch-clamp techniques for high resolution current recordings from cells and cell-free membrane patches”. Pflugers Arch. 1981;391:85-100) For Ca^2+ channel experiments, the external bathing solution contained tetraethylammonium chloride (100 mM), choline chloride (52 mM), NaCl (15 mM), HEPES (10 mM), glucose (5.6 mM), CaCl2 (2 mM), and MgCl2 (0.8 mM) pH 7.35 with KOH; with the internal pipette solution containing cesium methane sulfonate (140 mM), EGTA (10 mM), and HEPES (10 mM), supplemented with 5 mM Mg^2+ -ATP on the day of the experiment, pH 7.4 with CsOH. For Na^+ and K^+ channel experiments, the external bathing solution contained NaCl (150 mM), KCl (5 mM), MgCl2 (1.1 mM), CaCl2 (2.6 mM), Na-HEPES (10 mM), and glucose (10 mM), pH 7.4; with the internal pipette solution containing KCl (80 mM), K-gluconate (50 mM), HEPES (10 mM), and EGTA (10 mM), pH 7.4 with KOH. Experimental compounds were diluted into the external solution and applied to the soma of cells by local perfusion from large diameter (20-50 μm) glass micropipettes or from a U-tube applicator.
After obtaining a whole-cell recording, Ca^2+ channels were elicited by stepping to test potentials between −40 and +20 mV for 120 msec from the holding potential of −90 mV to determine if the amplitude of the current and clamp control were adequate for evaluation of drug effects. Ca^2+ channel currents were evoked by stepping from a holding potentials between −65 mV and −−55 mV to a test potential of +20 mV for 150 msec every 40 seconds. The amplitude of the Ca^2+ channel currents were compared before and during drug application and drug effects expressed as percent inhibition of the amplitude of control currents.

[2] = molecular target: T2, N-type Ca2+ channels in IMR-32 cells (Homo sapiens, UniProt Q00975); experiment: Inhibition of N-type calcium flux in IMR-32 cells (Indo-1 fluorescence, nitrendipine present); type: cell-based; conditions: for inhibition at 1 µM / inhibition at 10 µM: IMR-32; for IC50: IMR-32 cells, 5 μM nitrendipine, K+ depolarization
T2 construct: host or cells: IMR-32 cells, differentiated with dibutyryl cAMP and bromodeoxyuridine
How it was run: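 With L-type flux blocked by 5 μM nitrendipine, N-type Ca2+ entry was read as the Indo-1 emission ratio (400/490 nm, excitation 350 nm) at 30° C after KCl depolarization.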

[3] = tested on: Na+ channels in superior cervical ganglion (SCG) neurons; experiment: Whole-cell voltage clamp, Na+ current in SCG neurons; type: cell-based, rat
Description: as §1, §2, §3
(§4) For Na^+ and K^+ channel currents, following the determination of the I/V relationship for each cell in control solution, currents were evoked from a holding potential between −65 and −55 mV by stepping every 10 sec to a test potential of either 0 mV for Na^+ or +50 mV for K^+ current for a duration of 35 msec. Peak inward current was measured for Na^+ and sustained current for K^+ channel currents. […] Test compounds were applied until steady-state block was achieved. Data were expressed as percent inhibition of control amplitudes for Na^+ and K^+ channel currents.

[4] = tested on: K+ channels in superior cervical ganglion (SCG) neurons; experiment: Whole-cell voltage clamp, K+ current in SCG neurons; type: cell-based, rat
Description: as §1, §2, §3, §4

T2 sequence (Q00975 whole entry): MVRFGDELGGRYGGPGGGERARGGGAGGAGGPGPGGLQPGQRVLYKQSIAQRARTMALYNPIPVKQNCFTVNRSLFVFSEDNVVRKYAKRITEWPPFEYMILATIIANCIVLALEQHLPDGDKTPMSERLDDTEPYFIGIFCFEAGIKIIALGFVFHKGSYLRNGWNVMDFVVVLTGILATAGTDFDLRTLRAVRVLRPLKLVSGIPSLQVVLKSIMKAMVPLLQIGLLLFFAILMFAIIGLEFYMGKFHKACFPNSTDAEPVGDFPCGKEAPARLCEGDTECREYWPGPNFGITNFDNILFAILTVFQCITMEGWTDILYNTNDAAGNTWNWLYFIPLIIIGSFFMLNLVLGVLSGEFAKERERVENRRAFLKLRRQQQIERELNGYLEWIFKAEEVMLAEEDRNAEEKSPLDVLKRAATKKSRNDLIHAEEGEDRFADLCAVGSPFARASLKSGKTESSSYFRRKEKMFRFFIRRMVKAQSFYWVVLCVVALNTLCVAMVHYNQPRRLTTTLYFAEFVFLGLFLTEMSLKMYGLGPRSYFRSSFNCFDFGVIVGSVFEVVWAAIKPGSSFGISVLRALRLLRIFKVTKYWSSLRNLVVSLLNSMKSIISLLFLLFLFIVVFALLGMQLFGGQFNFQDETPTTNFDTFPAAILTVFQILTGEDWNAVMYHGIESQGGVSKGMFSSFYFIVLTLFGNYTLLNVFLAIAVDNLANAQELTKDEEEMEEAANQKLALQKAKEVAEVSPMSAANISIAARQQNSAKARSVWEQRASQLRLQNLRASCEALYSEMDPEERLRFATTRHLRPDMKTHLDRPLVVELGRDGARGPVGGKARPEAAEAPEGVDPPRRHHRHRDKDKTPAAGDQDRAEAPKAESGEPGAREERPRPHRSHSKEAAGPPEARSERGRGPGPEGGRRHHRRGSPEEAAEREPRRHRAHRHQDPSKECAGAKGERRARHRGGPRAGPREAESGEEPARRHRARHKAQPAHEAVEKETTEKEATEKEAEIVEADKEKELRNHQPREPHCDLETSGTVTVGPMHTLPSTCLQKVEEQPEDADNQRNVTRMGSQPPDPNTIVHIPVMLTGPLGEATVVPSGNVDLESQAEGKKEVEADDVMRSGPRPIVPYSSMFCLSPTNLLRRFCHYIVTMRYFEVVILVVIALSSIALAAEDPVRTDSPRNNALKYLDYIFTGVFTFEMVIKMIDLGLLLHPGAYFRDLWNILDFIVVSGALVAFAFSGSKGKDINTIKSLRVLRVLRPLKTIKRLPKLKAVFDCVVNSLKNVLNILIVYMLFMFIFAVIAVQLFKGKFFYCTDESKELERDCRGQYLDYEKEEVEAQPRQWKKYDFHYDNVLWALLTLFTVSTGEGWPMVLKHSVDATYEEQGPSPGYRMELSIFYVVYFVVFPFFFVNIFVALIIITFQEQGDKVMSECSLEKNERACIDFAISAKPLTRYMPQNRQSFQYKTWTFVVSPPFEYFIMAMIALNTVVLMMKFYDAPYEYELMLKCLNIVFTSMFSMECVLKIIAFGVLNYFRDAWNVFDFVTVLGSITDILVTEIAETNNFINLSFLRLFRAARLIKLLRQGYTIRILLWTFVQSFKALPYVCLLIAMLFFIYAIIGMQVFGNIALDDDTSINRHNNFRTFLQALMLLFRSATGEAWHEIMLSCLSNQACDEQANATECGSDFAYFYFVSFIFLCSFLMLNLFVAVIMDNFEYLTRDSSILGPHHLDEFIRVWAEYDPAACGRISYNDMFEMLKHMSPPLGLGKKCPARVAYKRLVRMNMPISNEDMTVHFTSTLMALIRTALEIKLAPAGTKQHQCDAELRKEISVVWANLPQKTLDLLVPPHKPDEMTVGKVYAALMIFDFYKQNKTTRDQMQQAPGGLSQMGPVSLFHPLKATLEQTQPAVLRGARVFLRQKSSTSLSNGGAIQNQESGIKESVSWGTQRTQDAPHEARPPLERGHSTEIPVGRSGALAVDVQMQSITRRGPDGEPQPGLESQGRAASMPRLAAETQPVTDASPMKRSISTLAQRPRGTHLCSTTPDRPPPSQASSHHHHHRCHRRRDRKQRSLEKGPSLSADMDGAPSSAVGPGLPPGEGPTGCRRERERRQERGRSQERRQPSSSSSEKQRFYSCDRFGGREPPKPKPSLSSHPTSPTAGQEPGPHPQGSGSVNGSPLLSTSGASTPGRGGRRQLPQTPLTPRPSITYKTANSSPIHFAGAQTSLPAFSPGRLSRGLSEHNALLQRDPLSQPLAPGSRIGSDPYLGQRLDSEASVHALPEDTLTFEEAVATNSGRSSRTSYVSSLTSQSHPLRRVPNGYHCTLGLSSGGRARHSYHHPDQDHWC
T2 sequence (P54289 25-956 partner limits assumed): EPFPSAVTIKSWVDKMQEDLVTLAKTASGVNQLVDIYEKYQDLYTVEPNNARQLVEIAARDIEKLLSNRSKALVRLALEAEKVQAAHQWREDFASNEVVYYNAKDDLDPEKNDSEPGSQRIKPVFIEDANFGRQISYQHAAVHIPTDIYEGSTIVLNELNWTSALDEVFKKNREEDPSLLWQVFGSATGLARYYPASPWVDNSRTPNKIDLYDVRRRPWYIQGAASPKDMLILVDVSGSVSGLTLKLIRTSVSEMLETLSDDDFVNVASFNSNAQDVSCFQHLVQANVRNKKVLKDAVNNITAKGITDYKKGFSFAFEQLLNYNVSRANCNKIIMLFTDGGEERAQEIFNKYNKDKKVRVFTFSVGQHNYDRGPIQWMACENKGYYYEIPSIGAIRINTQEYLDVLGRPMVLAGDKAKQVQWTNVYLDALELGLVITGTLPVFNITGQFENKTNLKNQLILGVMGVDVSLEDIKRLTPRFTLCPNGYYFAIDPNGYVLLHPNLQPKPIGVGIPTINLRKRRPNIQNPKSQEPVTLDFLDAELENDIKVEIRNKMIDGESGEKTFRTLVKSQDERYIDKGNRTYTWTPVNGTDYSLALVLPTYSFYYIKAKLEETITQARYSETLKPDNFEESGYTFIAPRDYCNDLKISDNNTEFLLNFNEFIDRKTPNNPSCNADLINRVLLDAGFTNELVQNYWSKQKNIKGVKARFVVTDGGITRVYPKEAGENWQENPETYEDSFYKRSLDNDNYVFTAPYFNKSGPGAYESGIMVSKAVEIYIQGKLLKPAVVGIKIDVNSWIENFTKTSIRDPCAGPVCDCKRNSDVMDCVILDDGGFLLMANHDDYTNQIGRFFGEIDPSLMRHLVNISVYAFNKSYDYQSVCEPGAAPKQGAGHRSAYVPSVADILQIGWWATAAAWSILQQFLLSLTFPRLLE
T2 sequence (P54289 957-1103 partner limits assumed): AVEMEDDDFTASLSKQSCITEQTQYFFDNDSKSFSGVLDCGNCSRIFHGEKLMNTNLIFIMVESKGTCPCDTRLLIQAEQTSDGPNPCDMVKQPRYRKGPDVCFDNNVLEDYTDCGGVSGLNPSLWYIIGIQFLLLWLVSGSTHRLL
T2 sequence (P54284 whole entry partner): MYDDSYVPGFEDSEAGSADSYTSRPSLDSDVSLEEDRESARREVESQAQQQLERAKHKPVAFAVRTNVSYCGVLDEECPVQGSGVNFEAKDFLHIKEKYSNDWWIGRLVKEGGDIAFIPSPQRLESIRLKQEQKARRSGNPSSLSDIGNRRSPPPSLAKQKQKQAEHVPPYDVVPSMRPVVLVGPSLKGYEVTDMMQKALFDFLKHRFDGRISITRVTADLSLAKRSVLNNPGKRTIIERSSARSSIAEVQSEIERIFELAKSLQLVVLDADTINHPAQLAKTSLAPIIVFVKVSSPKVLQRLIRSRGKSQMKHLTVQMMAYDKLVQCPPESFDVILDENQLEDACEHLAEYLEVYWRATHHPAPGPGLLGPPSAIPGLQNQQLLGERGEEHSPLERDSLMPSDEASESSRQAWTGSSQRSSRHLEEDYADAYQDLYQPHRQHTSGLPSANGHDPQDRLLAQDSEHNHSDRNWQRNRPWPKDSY

| SMILES | inhibition at 10 µM [1] [%] | inhibition at 1 µM [2] [%] | inhibition at 10 µM [2] [%] | IC50 [2] [nM] | Inhibition of Na+ Current, % Inhibition at 10 μM [3] [%] | Inhibition of K+ Current, % Inhibition at 10 μM [4] [%] | Inhibition of N-type Ca2+ Current, % Inhibition at 10 μM [1] [%] | Inhibition of Calcium Flux in IMR-32 Cells % Inhibition at 1 μM [2] [%] | IC50 [1] [nM] | IC50 ([3]; read-out: Inhibition of Na+ Current IC50) [nM] | IC50 ([4]; read-out: Inhibition of K+ Current IC50) [nM] | Inhibition of Calcium Flux in IMR-32 Cells % Inhibition at 10 μM ([2]; 10 μM) [%] |
| --- | --- | --- | --- | --- | --- | --- | --- | --- | --- | --- | --- | --- |
| CC(C)CC(NC(=O)N1CCCCCC1)C(=O)NC(C)(Cc1ccc(OCc2ccccc2)cc1)C(=O)OC(C)(C)C (stereo not drawn) [Example 11A, [S-(R*,R*)]-2-{2-[(Azepane-1-carbonyl)-amino]-4-methyl-pentanoylamino}-3-(4-benzyloxy-phenyl)-2-methyl-propionic acid tert-butyl ester] | 47 | 61 | 88 | 530 | 11 | 47 | – | – | – | – | – | – |
| CC(C)C[C@H](NC(=O)N1CCCCCC1)C(=O)N[C@@H](Cc1ccc(OCc2ccccc2)cc1)C(=O)N1CCN(Cc2ccccc2)CC1 (relative stereo) [Example 180, [S-(R*,R*)]-Azepane-1-carboxylic acid {1-[1-(4-benzyloxy-benzyl)-2-(4-benzyl-piperazin-1-yl)-2-oxo-ethylcarbamoyl]-3-methyl-butyl}-amide] | – | – | – | 820 | 20 | 60 | 81 | 55 | – | – | – | – |
| CC(C)C[C@H](NC(=O)N1CCCCCC1)C(=O)N[C@@H](Cc1ccc(OCc2cccnc2)cc1)C(=O)OC(C)(C)C [Example 31, [S-(R*,R*)]-2-{2-[(Azepane-1-carbonyl)-amino]-4-methyl-pentanoylamino}-3-[4-(pyridin-3-ylmethoxy)-phenyl]-propionic acid tert-butyl ester] | 68 | 28 | 85 | 1850 | 21 | 41 | – | – | 3340 | 185000 | 12400 | – |
| C[C@H](NC(=O)N1CCCCCC1)C(=O)N[C@@H](Cc1ccc(OCc2ccccc2)cc1)C(=O)OC(C)(C)C (relative stereo) [Example 7, [S-(R*,R*)]-2-{2-[(Azepane-1-carbonyl)-amino]-propionylamino}-3-(4-benzyloxy-phenyl)-propionic acid tert-butyl ester] | – | – | – | 1500 | 52 | 70 | 81 | 44 | 2300 | – | – | 96 |
| CC(C)C[C@H](NC(=O)N1CCCCCC1)C(=O)N[C@@H](Cc1ccc(OCC2CCCCC2)cc1)C(=O)OC(C)(C)C [Example 30, [S-(R*,R*)]-2-{2-[(Azepane-1-carbonyl)-amino]-4-methyl-pentanoylamino}-3-(4-cyclohexylmethoxy-phenyl)-propionic acid tert-butyl ester] | 38 | 56 | 83 | 630 | 19 | 8 | – | – | – | – | – | – |
| CC(C)(C)C[C@H](NC(=O)N1CCCCCC1)C(=O)N[C@@H](Cc1ccc(OCc2ccccc2)cc1)C(=O)NCCN1CCCCC1 [Example 159, [S-(R*,R*)]-Azepane-1-carboxylic acid {1-[2-(4-benzyloxy-phenyl)-1-(2-piperidin-1-ylethylcarbamoyl)-ethylcarbamoyl]-3,3-dimethyl-butyl}-amide] | 28 | – | – | 830 | 30 | 46 | – | – | – | – | – | – |
| CC(C)C[C@H](NC(=O)N1CCCCCC1)C(=O)N[C@@H](Cc1ccc(OCc2ccccc2)cc1)C(=O)N1CCCCC1 [Example 167, [S-(R*,R*)]-Azepane-1-carboxylic acid {1-[1-(4-benzyloxy-benzyl)-2-oxo-2-piperidin-1-ylethylcarbamoyl]-3-methyl-butyl}-amide] | 4 | 58 | – | 530 | −2 | 8 | – | – | – | – | – | – |
